ChEMBL document CHEMBL5634129, “Design, synthesis, and structure-activity relationships of a novel class of quinazoline derivatives as coronavirus inhibitors” (Eur J Med Chem, 2023)

What was measured:
[1] = tested on: Human coronavirus OC43; experiment: Antiviral activity against HCoV-OC43 infected in human NCI-H460 cells treated for 72 hrs by CPE inhibition assay; type: functional, organism-based; details: Betacoronavirus 1, NCI-H460, 72 h
[2] = Selectivity index, ratio of TC50 for human NCI-H460 cells infected with HCoV-OC43 to EC50 for HCoV-OC43 infected in human NCI-H460 cells; type: toxicity, cell-based; details: read-out: Selectivity Index
[3] = Cytotoxicity in human NCI-H460 cells infected with HCoV-OC43 treated for 72 hrs by CPE inhibition assay; type: toxicity, cell-based; details: read-out: TC50

Row | Compound | EC50 [1] [µM] | selectivity ratio [2] | CC50 at 72 h [3] [µM]
1 | FC(F)(F)c1cc(Nc2ncnc3ccc(C(F)(F)F)cc23)cc(C(F)(F)F)c1 | 0.23 | 18.6 | 4.28
2 | COc1ccc2ncnc(Oc3cc(C(F)(F)F)cc(C(F)(F)F)c3)c2c1 | > 55.6 | 240 | 240
3 | CCOc1ccc2nc(NC(Cc3ccccc3)C(=O)OC(C)(C)C)nc(Nc3cc(C(F)(F)F)cc(C(F)(F)F)c3)c2c1 (stereo unspecified) | 18.5 | 2.1 | 38.5
4 | O=[N+]([O-])c1cnc(Nc2ncnc3ccc(Cl)cc23)nc1 | > 66.7 |  | 139
5 | COc1ccc(Nc2ncnc3ccc(Cl)cc23)cc1 | > 7.41 |  | 12.8
6 | CCOc1ccc2nc(NC(C)CCCN(CC)CC)nc(Nc3cc(C(F)(F)F)cc(C(F)(F)F)c3)c2c1 (stereo unspecified) | > 2.06 |  | 3.56
7 | Cc1ccc(Nc2ncnc3ccc(Cl)cc23)c(Cl)c1 | > 7.41 |  | 28.6
8 | COc1ccc2ncnc(Nc3cccc(C(F)(F)F)c3)c2c1 | 4.28 | 2.5 | 10.7
9 | COc1ccc2ncnc(Nc3cc(C(F)(F)F)ccc3F)c2c1 | > 6.17 |  | 15.4
10 | CCOc1ccc2ncnc(Nc3cc(C(F)(F)F)cc(C(F)(F)F)c3)c2c1 | 0.69 | 318 | 219
11 | COc1ccc2ncnc(Sc3cc(C(F)(F)F)cc(C(F)(F)F)c3)c2c1 | > 55.6 | 96.2 | 96.2
12 | CCOc1ccc2nc(NCc3ccco3)nc(Nc3cc(C(F)(F)F)cc(C(F)(F)F)c3)c2c1 | 1.19 | 9 | 10.7
13 | Clc1ccc2ncnc(NCCN3CCOCC3)c2c1 | 155 |  | > 200
14 | CCOC(=O)c1ccc(Nc2ncnc3ccc(Cl)cc23)c(Cl)c1 | > 7.41 |  | 32
15 | CCOc1ccc2nc(NCC(=O)OC(C)(C)C)nc(Nc3cc(C(F)(F)F)cc(C(F)(F)F)c3)c2c1 | 3.56 | 5.2 | 18.5
16 | N#Cc1ccc(Nc2ncnc3ccc(Cl)cc23)c(Cl)c1 | > 22.2 |  | 46.2
17 | FC(F)(F)c1cc(Nc2ncnc3ccccc23)cc(C(F)(F)F)c1 | 1.43 | 12.1 | 17.2
18 | O=[N+]([O-])c1cccc(Nc2ncnc3ccc(Cl)cc23)c1 | 4.28 | 12.1 | 51.7
19 | CN(C)c1ccc(Nc2ncnc3ccc(Cl)cc23)cc1Cl | > 2.47 |  | 4.28
20 | COc1ccc2ncnc(Nc3ccc(F)c(Cl)c3)c2c1 | 3.56 | 3.6 | 12.8
21 | Fc1ccc2ncnc(Nc3cc(C(F)(F)F)cc(C(F)(F)F)c3)c2c1 | 0.88 | 14.6 | 12.8
22 | CCOc1ccc2nc(N3CCC(F)(F)CC3)nc(Nc3cc(C(F)(F)F)cc(C(F)(F)F)c3)c2c1 | 6.17 | 2.1 | 12.8
23 | COc1cc(/C=C/c2ccccc2)c(C(=O)O)c(O)c1CC=C(C)C | 22.2 |  | 38.5
24 | Clc1ccc2ncnc(Nc3ccccc3Cl)c2c1 | > 22.2 |  | 96.2
25 | CCOc1ccc2nc(N3CCN(C)CC3)nc(Nc3cc(C(F)(F)F)cc(C(F)(F)F)c3)c2c1 | 0.48 | 22.3 | 10.7

Row | Compound | EC50 [1] [µM] | selectivity ratio [2] | CC50 at 72 h [3] [µM]
26 | CN(C)c1ccc(Nc2ncnc3ccc(Cl)cc23)c(Cl)c1 | > 2.47 |  | 4.28
27 | CC(C)Oc1ccc2ncnc(Nc3cc(C(F)(F)F)cc(C(F)(F)F)c3)c2c1 | 43.1 | 9 | 388
28 | O=C(O)c1ccc(Nc2ncnc3ccc(Cl)cc23)c(Cl)c1 | > 22.2 |  | 96.2
29 | CC/C=C/c1cc(OC)c(CC=C(C)C)c(O)c1C(=O)O | > 22.2 |  | 46.2
30 | FC(F)(F)c1cc(Nc2ncnc3ccc(Br)cc23)cc(C(F)(F)F)c1 | 0.35 | 7.1 | 2.47
31 | CCCNc1nc(Nc2cc(C(F)(F)F)cc(C(F)(F)F)c2)c2cc(OCC)ccc2n1 | 0.69 | 9 | 6.17
32 | COc1ccc2ncnc(Nc3cccc(C#N)c3)c2c1 | > 55.6 |  | 388
33 | O=[N+]([O-])c1ccc(Nc2ncnc3ccc(Cl)cc23)cc1Cl | > 2.47 |  | 22.2
34 | CCOc1ccc2nc(NC(C)C)nc(Nc3cc(C(F)(F)F)cc(C(F)(F)F)c3)c2c1 | 1.43 | 6.2 | 8.9
35 | Clc1ccc(Nc2ncnc3ccc(Cl)cc23)c(Cl)c1 | > 7.41 |  | 15.4
36 | CN1CCN(CCNc2ncnc3ccc(Cl)cc23)CC1 | > 66.7 |  | > 200
37 | Nc1ccc2ncnc(Nc3cc(C(F)(F)F)cc(C(F)(F)F)c3)c2c1 | 0.48 | 22.3 | 10.7
38 | COc1cc2c(Nc3cc(C(F)(F)F)cc(C(F)(F)F)c3)ncnc2cn1 | 0.28 | 24.8 | 6.93
39 | COc1ccc2ncnc(Nc3cc(Cl)cc(C(F)(F)F)c3)c2c1 | 1.43 | 90.4 | 129
40 | COc1ccc2ncnc(Nc3cc([N+](=O)[O-])cc(C(F)(F)F)c3)c2c1 | 0.69 | 140 | 96.2
41 | COC(=O)c1cc(Nc2ncnc3ccc(OC)cc23)cc(C(F)(F)F)c1 | 0.48 | 55.6 | 26.7
42 | CCOC(=O)c1ccc(Nc2ncnc3ccc(Cl)cc23)cc1 | > 7.41 |  | 38.5
43 | COc1ccc2ncnc(Nc3ccc(F)c(C(F)(F)F)c3)c2c1 | 1.43 | 18.7 | 26.7
44 | O=[N+]([O-])c1ccc2ncnc(Nc3cc(C(F)(F)F)cc(C(F)(F)F)c3)c2c1 | 0.29 | 12.3 | 3.56
45 | COc1ccc2ncnc(Nc3cc(Cl)cc(C#N)c3)c2c1 | 9.98 | 24.1 | 240
46 | O=[N+]([O-])c1ccc(CNc2ncnc3ccc(Cl)cc23)cc1 | 55.6 |  | 167
47 | CCOC(=O)c1c(/C=C/c2ccccc2)cc(OC)c(CC=C(C)C)c1O | 139 |  | > 200
48 | Clc1ccc(Nc2ncnc3ccc(Cl)cc23)cc1 | > 7.41 |  | 12.8
49 | COC(=O)c1cc(Nc2ncnc3ccc(OC)cc23)cc(C(=O)OC)c1 | 55.6 | 4.3 | 240
50 | CCOc1ccc2nc(NCc3cccs3)nc(Nc3cc(C(F)(F)F)cc(C(F)(F)F)c3)c2c1 | 2.97 | 3.6 | 10.7

Row | Compound | EC50 [1] [µM] | selectivity ratio [2] | CC50 at 72 h [3] [µM]
51 | Cc1ccc2ncnc(Nc3cc(C(F)(F)F)cc(C(F)(F)F)c3)c2c1 | 1.19 | 80.9 | 96.2
52 | FC(F)(F)c1cc(Nc2ncnc3ccc(Cl)cc23)cc(C(F)(F)F)c1 | 0.16 | 10.8 | 1.71
53 | Fc1cc(Nc2ncnc3ccc(Cl)cc23)cc(C(F)(F)F)c1 | 2.47 | 2.08 | 5.14
54 | CCOc1ccc2nc(NC3CC3)nc(Nc3cc(C(F)(F)F)cc(C(F)(F)F)c3)c2c1 | 0.31 | 15.5 | 4.81
55 | CCCOc1ccc2ncnc(Nc3cc(C(F)(F)F)cc(C(F)(F)F)c3)c2c1 | 0.37 | 1050 | 388
56 | FC(F)(F)c1cc(CNc2ncnc3ccc(Cl)cc23)cc(C(F)(F)F)c1 | 9.98 |  | 388
57 | FC(F)(F)c1cc(Nc2ncnc3ccc(I)cc23)cc(C(F)(F)F)c1 | 0.48 | 16.6 | 7.95
58 | CCOc1ccc2nc(NCCN3CCN(C)CC3)nc(Nc3cc(C(F)(F)F)cc(C(F)(F)F)c3)c2c1 | 0.53 | 10.9 | 5.77
59 | COc1ccc2ncnc(Nc3cc(C(F)(F)F)cc(C(F)(F)F)c3)c2c1 | 1.14 |  | 96.2
60 | COc1cc(/C=C/c2ccc(F)cc2)c(C(=O)O)c(O)c1CC=C(C)C | 12.8 |  | 38.5
61 | FC(F)(F)c1cc(Nc2ncnc3cccnc23)cc(C(F)(F)F)c1 | 32.1 | 7.5 | 240
62 | CCOc1ccc2nc(NCC(F)(F)F)nc(Nc3cc(C(F)(F)F)cc(C(F)(F)F)c3)c2c1 | 2.06 | 15.6 | 32.1
63 | COc1ccc2ncnc(Nc3cc(F)cc(C#N)c3)c2c1 | 23.9 | 16.3 | 388
64 | CCOc1ccc2nc(NC3CCCC3)nc(Nc3cc(C(F)(F)F)cc(C(F)(F)F)c3)c2c1 | > 6.17 |  | 12.8
65 | NC(=O)c1ncn([C@@H]2O[C@H](CO)[C@@H](O)[C@H]2O)n1 [RIBAVIRIN] | 78.8 | 5.2 | 409
66 | COC(=O)c1cc(C#N)cc(Nc2ncnc3ccc(OC)cc23)c1 | 2.65 | > 189 | > 500
67 | O=[N+]([O-])c1ccc(Nc2ncnc3ccc(Cl)cc23)cc1 | > 7.41 |  | 46.2
68 | CCN(CC)CCCC(C)Nc1ncnc2ccc(Cl)cc12 (stereo unspecified) | > 200 |  | > 200
69 | COC(=O)c1cc(F)cc(Nc2ncnc3ccc(OC)cc23)c1 | > 55.6 |  | 388
70 | COc1ccc2ncnc(N3CCN(c4cc(C(F)(F)F)cc(C(F)(F)F)c4)C(=O)C3)c2c1 | 6.17 |  | 240
71 | N#Cc1ccc(Nc2ncnc3ccc(Cl)cc23)cc1 | > 7.41 |  | 28.6
72 | Clc1ccc2ncnc(Nc3ccc(Br)cc3)c2c1 | > 2.47 |  | 5.14
73 | Fc1ccc(Nc2ncnc3ccc(Cl)cc23)cc1 | > 7.41 |  | 15.4
